Source: patent US12139481B2, “Compositions comprising macrocycle derivatives incorporating bridged macrocycles and methods of producing and using same” (Southwestern Oklahoma State University, priority 2015, dated 2024)
Like-named read-outs stand apart in the source and are kept apart here.

Key:
[1] = system: Staphylococcus aureus ATCC 29213; test: Antibacterial broth dilution assay against S. aureus (modified CLSI); format: cell-based; conditions: for S. aureus IC50 / IC50: in vitro; for IC50: converted with molecular weight; for X more potent than ciprofloxacen: molar IC50 ratio versus ciprofloxacen
Protocol: (§1) General Experimental Procedures. All organisms were obtained from the American Type Culture Collection (Manassas, VA) and include the fungi Candida albicans ATCC 90028, C. glabrata ATCC 90030, C. krusei ATCC 6258, and Cryptococcus neoformans ATCC 90113, and the bacteria Staphylococcus aureus ATCC 29213 and methicillin-resistant S. aureus ATCC 33591 (MRS). All organisms were tested using modified versions of the CLSI (formerly NCCLS) methods. For all organisms, optical density was used to monitor growth (NCCLS, Reference Method for Broth Dilution Antifungal Susceptibility Testing of Yeasts; Approved Standard M27-A2. National Committee on Clinical Laboratory Standards, 2002 22 (15); and NCCLS, Methods for Dilution Antimicrobial Susceptibility Tests for Bacteria that Grow Aerobically; Approved Standard, Seventh Edition M7-A7. National Committee on Clinical Laboratory Standards, 2006. 26(2)).
(§2) Samples (dissolved in DMSO) were serially-diluted in 20% DMSO/saline and transferred (10 μL) in duplicate to 96 well flat bottom microplates. Inocula were prepared by correcting the OD630 of microbe suspensions in incubation broth [RPMI 1640/0.2% dextrose/0.03% glutamine/MOPS @ pH 6.0 (Cellgro) for Candida spp., Sabouraud Dextrose for C. neoformans, and cation-adjusted Mueller-Hinton (Difco) @ pH 7.3 for Staphylococcus spp. to afford an assay volume of […] and final target inocula of: Candida spp. and C. neoformans: 1.5×10^3, and Staphylococcus spp.: 5.0×10^5 CFU/ml. Final sample test concentrations were 1/100th the DMSO stock concentration. […] All organisms were read at either 530 nm using the Biotek Powerwave XS plate reader (Bio-Tek Instruments, Vermont) prior to and after incubation: Candida spp. at 35° C. for 46-50 h, Staphylococcus spp. at 35° C. for 16-20 h, and C. neoformans at 35° C. for 70-74 h. IC50s (concentrations that afford 50% inhibition relative to controls) were calculated using XLfit 4.2 software (IDBS, Alameda, CA) using fit model 201. The MIC is defined as the lowest test concentration that allows no detectable growth. Minimum fungicidal or bactericidal concentrations were determined by removing 5 μl from each clear (or blue) well, transferring to fresh media, and incubating as previously mentioned. The MFC/MBC is defined as the lowest test concentration that kills the organism (allows no growth).
(§3) Primary Analysis. Samples were tested in duplicate at one test concentration (50 μg/mL), and percent inhibitions were calculated relative to blank and growth controls. Samples showing 50% inhibition in at least one test organism were selected for dose response (Secondary) studies.
(§4) Secondary Analysis. Extracts from the Primary Assay, and first-run pure compounds and column fractions were tested in duplicate at 3 test concentrations (5-fold dilutions). Samples dissolved to 20 mg/mL in DMSO were tested at 200, 40, and 8 μg/mL. Samples dissolved to 2 mg/mL in DMSO were tested at 20, 4, and 0.8 μg/mL.

[2] = system: C. glabrata ATCC 90030; test: Antifungal broth dilution assay against C. glabrata (modified CLSI); format: cell-based, Candida glabrata
Protocol: as §1, §2, §3, §4

[3] = system: L. donovani promastigotes; test: Antileishmanial Alamar Blue assay on promastigotes; format: cell-based, Leishmania donovani; conditions: for X more potent than Pentamidine: L. donovani, ratio of molar IC50 to Pentamidine; for L. donovani IC50 / IC50: promastigotes, 48 hours, Alamar Blue; for IC50: read-out: L. donavani IC50
Protocol: Methods: The compounds were screened in vitro against the promastigote forms of the leishmania parasites employing the Alamar Blue assay as discussed below.
Antileishmanial activity of the compounds was tested in vitro against a culture of L. donovani promastigotes, grown in RPMI 1640 medium supplemented with 10% fetal calf serum (FCS, Gibco Chem. Co., Grand Island, NY) at 26° C. A 3-day-old culture was diluted to 5×10^5 promastigotes/mL. Drug dilutions (50-3.1 μg/mL) were prepared directly in cell suspension in 96-well plates. Plates were incubated at 26° C. for 48 hours, and growth of leishmania promastigotes was determined by Alamar Blue assay. Standard fluorescence was measured on a FLUOstar® Galaxy plate reader (BMG Lab Technologies, Ortenberg, Germany) at an excitation wavelength of 544 nm and emission wavelength of 590 nm. Pentamidine and amphotericin B were used as the standard antileishmanial agents. Percent growth was calculated and plotted versus test concentration for computing the IC50 values.

[4] = system: Cryptococcus neoformans ATCC 90113; test: Antimicrobial microdilution assay against Cryptococcus neoformans (modified CLSI/NCCLS, optical density); format: cell-based; conditions: for X more potent than Amphotericin B: C. neoformans, ratio of molar IC50 to Amphotericin B; for C. neoformans IC50 / IC50: in vitro, C. neoformans ATCC 90113; for IC50: read-out: C. neoformans IC50 (mol/L)
Method in brief: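 Fungicidal endpoint taken by subculturing 5 μL from each clear well onto agar, MFC being the lowest concentration with no regrowth. Duplicate wells of serially diluted compound (20% DMSO/saline) in RPMI pH 6.0, read at 630 nm pre- and post-incubation, under modified CLSI methods. IC50 means 50% growth inhibition against controls.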

[5] = system: Plasmodium falciparum D6 clone (Sierra Leon, chloroquine-sensitive); test: In vitro antimalarial assay, chloroquine-sensitive D6 clone; format: cell-based; conditions: for X more potent than chloroquine: molar IC50 ratio versus chloroquine
Protocol: (§5) The compounds were assayed for in vitro antimalarial activity against the W2 clone and D6 clone of the pathogenic Plasmodium falciparum. The strains of P. falciparum were obtained from the Division of Experimental Therapeutics, Walter Reed Army Institute of Research, Washington D.C. Strains of Sierra Leon D6 and Indochina W2 are chloroquine-sensitive and chloroquine-resistant, respectively. The parasite was grown in type A human RBCs and, two strains subcultured daily with fresh medium and blood cells. On the day of the assay, a suspension of infected blood cells (2% parasitemia and 2% hematocrit) was prepared using type A human red blood cells. Assays were performed by standard 96-well flat-bottomed microplate methods and done in duplicate at different concentrations. IC50 values were obtained from the dose curves. Artemisinin and chloroquine were included in each assay as the drug controls, and DMSO was used as vehicle control. The whole protocol was developed based on the published method of Makler. The cytotoxicity assays were also performed in parallel against the Vero cells, and the selectivity index was measured. A selectivity index of >9 was considered to indicate a lead for further development of antimalarial drug.

[6] = system: Plasmodium falciparum W2 clone (Indochina, chloroquine-resistant); test: In vitro antimalarial assay, chloroquine-resistant W2 clone; format: cell-based; conditions: for X more potent than chloroquine: molar IC50 ratio versus chloroquine
Protocol: as §5

[7] = D6 clone, converted with molecular weight, read-out: P. falciparum D6 IC50
[8] = W2 clone, converted with molecular weight, read-out: P. falciparum W2 IC50

| Compound | S. aureus IC50 [1] [µg/mL] | IC50 [1] [nM] | X more potent than ciprofloxacen [1] | X more potent than Pentamidine [3] | L. donovani IC50 [3] [µg/mL] | IC50 [3] [nM] | X more potent than Amphotericin B [4] | C. neoformans IC50 [4] [µg/mL] | IC50 [4] [nM] | P. falciparum D6 IC50 ([5]; D6 clone) [µg/mL] | IC50 [5, 7] [nM] | X more potent than chloroquine ([5]; D6 clone) | P. falciparum W2 IC50 ([6]; W2 clone) [µg/mL] | IC50 [6, 8] [nM] | X more potent than chloroquine ([6]; W2 clone) | further results |
| --- | --- | --- | --- | --- | --- | --- | --- | --- | --- | --- | --- | --- | --- | --- | --- | --- |
| CC(=O)[O-].F[P-](F)(F)(F)(F)F.[Co+2].c1ccc(CN2CCN3CCCN(CC2)CCN(Cc2ccccc2)CC3)cc1 [AW038, [Co(Bn2PBCyclen)(C2H3O2)]PF6] | 5.080 | 7750 | 0.04 | 0.17 | 20.66 | 31500 | 0.04 | 4.370 | 6670 | – | – | – | – | – | – | C. glabrata IC50 ([2]; in vitro): 5.800 µg/mL; IC50 ([2]; in vitro, converted with molecular weight): 8850 nM; X more potent than Amphotericin B ([2]; molar IC50 ratio versus amphotericin B): 0.16 |
| CC(=O)[O-].F[P-](F)(F)(F)(F)F.O.[Ni+2].c1ccc(CN2CCCNCCN(Cc3ccccc3)CCCNCC2)cc1 [BME06, [Ni(Bn2Cyclam)(OAc)]PF6•H2O] | – | – | – | 0.13 | 26.25 | 39700 | 0.01 | 17.990 | 27200 | 0.7495 | 1130 | 0.03 | 1.7132 | 2590 | 0.26 | – |
| CCN(CC)CCCC(C)Nc1ccnc2cc(Cl)ccc12 (stereo not shown) [CQ] | – | – | – | – | – | – | – | – | – | – | – | 1.00 | – | – | 1.00 | IC50 ([5]; Plasmodium falciparum, D6, read-out: P. falciparum D6 IC50 (mol/L)): 36.6 nM; IC50 ([5]; Plasmodium falciparum, D6, read-out: P. falciparum D6 IC50 (μg/mL)): 0.0117 µg/mL; IC50 ([6]; Plasmodium falciparum, W2, read-out: P. falciparum W2 IC50 (mol/L)): 678 nM; IC50 ([6]; Plasmodium falciparum, W2, read-out: P. falciparum W2 IC50 (μg/mL)): 0.217 µg/mL |
| CC(=O)[O-].CC(=O)[O-].[Cu+2].c1ccc(CN2CCCN3CCCN(CCCN(Cc4ccccc4)CC3)CC2)cc1 [DJD20, Cu(Bn2PBCyclam)(OAc)2] | 6.880 | 11400 | 0.02 | 0.22 | 14.65 | 24300 | 0.05 | 3.130 | 5200 | – | – | – | – | – | – | – |
| Clc1ccc2c(N3CCCNCCCNCCNCCC3)ccnc2c1 [K-JDD-0011-P36] | – | – | – | – | – | – | – | – | – | 0.0203 | 54 | 0.68 | 0.5279 | 1400 | 0.48 | – |
| Clc1ccc2c(N3CCNCCN(c4ccnc5cc(Cl)ccc45)CCNCC3)ccnc2c1.[Cl-].[Cl-].[Mn+2] [K-PAA2-0004-P8] | – | – | – | – | – | – | – | – | – | 0.0750 | 120 | 0.30 | 0.0875 | 141 | 4.82 | – |
| CN1CCN(c2ccnc3cc(Cl)ccc23)CCN(C)CCN(c2ccnc3cc(Cl)ccc23)CC1 [K-PAA-0012-P28] | – | – | – | – | – | – | – | – | – | 0.1169 | 223 | 0.16 | 0.1992 | 380 | 1.78 | – |
| Clc1ccc2c(N3CCNCCN(c4ccnc5cc(Cl)ccc45)CCNCC3)ccnc2c1.O.O.[Fe+3].[O-][Cl+3]([O-])([O-])[O-].[O-][Cl+3]([O-])([O-])[O-].[O-][Cl+3]([O-])([O-])[O-] [K-PAA-0016-P36, Fe-complex-4,10-bis(7-chloroquinoline)cyclen)Cl2] | – | – | – | – | – | – | 0.22 | 0.940 | 1060 | 0.0196 | 22.1 | 1.65 | 0.0336 | 37.9 | 17.88 | times more potent than chloroquine ([6]; chloroquine-resistant P. falciparum (W2 strain)): ~18 |
| Clc1cc(CN2CCN3CCN(CCN(Cc4ccc(CN5CCN6CCN(CC5)CCN(Cc5cc(Cl)nc(Cl)c5)CC6)cc4)CC3)CC2)cc(Cl)n1 [PW111A, p-dcp2-CB-cyclens] | 5.530 | 6750 | 0.04 | 0.34 | 12.89 | 15700 | 4.88 | 0.040 | 48.8 | – | – | – | – | – | – | – |
| [Zn2(m-cyclam-homocyclen)(OAc)2][PF6]2 [AW052B] | 6.580 | 5940 | 0.05 | 0.33 | 17.60 | 15900 | 0.23 | 1.150 | 1040 | – | – | – | – | – | – | – |
| m-CB-homocyclens HCl salt [OB65B] | – | – | – | 0.48 | 11.08 | 11200 | 1.47 | 0.160 | 162 | 0.2921 | 295 | 0.12 | 0.3783 | 382 | 1.78 | – |
| p-CB-cyclens HCl salt [OB15B] | – | – | – | 0.22 | 20.94 | 24000 | 0.34 | 0.610 | 699 | 0.5799 | 1100 | 0.03 | 0.6558 | 1240 | 0.54 | – |
